The text below walks through data of patent publication US9011935B2, “Therapeutic composition and use” (priority 2006, dated 2015).

Series [1] relates to Methicillin Resistant Staphylococcus Aureus (MRSA). Kind of series: Agar plate antibacterial test (Example 1). The following applies: liquid added to hollow circle of seeded agar plate, FIG. 1.
Experimental: (§1) A 1M solution of potassium nitrite was prepared by diluting 8.51 g of KNO2 in 100 ml of distilled water. 17.612 g of ascorbic acid was diluted in 100 ml of distilled water to form a 1M solution. The three stock solutions were prepared a few minutes prior to the experiments.
(§2) A volume of NaNO2 and an equal volume of KNO2 were mixed with twice the volume of ascorbic acid in a sterile container to produce an “oxides of nitrogen” containing solution. A reaction between the nitrites and the acid occurred instantly. The gas produced was released and 2 ml of the premixed liquid (0.25M) was added to 20 ml of distilled water to give a final concentration of the solution of 1.25 mM.
(§3) Separate samples of NaNO2, KNO2 and ascorbic acid were also prepared as described above.
(§4) An overnight culture of bacteria was prepared by inoculating 20 ml of LB (Luria-Bertani 10 g Bacto-tryptone, +5 g Bacto-yeast extract, +10 g sodium chloride per liter, at pH 7.5) broth with 2 to 3 colonies, and incubating at 37° C. overnight. Broth cultures containing approximately 109 organisms were produced. Bacteria were diluted 1:1000 using phosphate buffer saline (PBS) and 100 μl of diluted broth cultures were seeded on the Brain-Heart agar plates. Prior to seeding bacteria on to the surface of the agar plates a piece of agar (approximately 70 mm in diameter) from the centre of the plates was removed. […]
In a further series the test system is Candida Albicans (CA). In words: Agar plate antibacterial test (Example 2). To be noted: liquid added to hollow circle of seeded agar plate, FIG. 2.
Series [2] has as its system Pseudomonas Aeruginosa (PS). In words: Agar plate antibacterial test (Example 3). The following applies: liquid added to hollow circle of seeded agar plate, FIG. 3.
Experimental: as §1, §2, §3, §4
In series [3] the test system is Coagulase negative Staphylococcus (CNS). In words: Agar plate antibacterial test (Example 4). To be noted: liquid added to hollow circle of seeded agar plate, FIG. 4.
Experimental: as §1, §2, §3, §4
Series [4] is described as follows: pH change on addition of L-ascorbic acid to sodium nitrite (Examples 16 and 17). It counts as physicochemical. The following applies: 1M sodium nitrite in normal saline, before acid addition. The procedure:
The pH change was measured when L-ascorbic acid was added to sodium nitrite incrementally and as a single addition.
Analytical grade (>99% purity) sodium nitrite (NaNO2) and L-ascorbic acid (C6H8O6) from Sigma-Aldrich, UK were used. Saline (0.9% wv of NaCl) was from Baxter Healthcare-UK was also used.
Normal saline was used as solvent in the preparation of the solutions of sodium nitrite and ascorbic acid. All solutions were prepared at room temperature (22-25° C.) in lots of 25 or 50 ml and were used within 10-20 days. Stock solutions were kept in airtight vessels away from light.
All pH measurements of the solutions were carried out with a Wissenschaftlich-Technische Werkstätten (WTW) pH meter, model pH340i along with a SenTix 20 pH combination electrode incorporating a thermocouple. The electrode was calibrated with freshly prepared buffer calibrating solutions (pH 7.00 and 4.00±0.002). Calibrating solutions were prepared from ALDRICH Tri-check buffer capsules, Aldrich, USA.
The pH of the solutions was measured with the addition of a standard magnetic stir bar operating at 60 rpm. At least 12 ml of solutions were used to ensure that the electrode was completely immersed. 1M solutions of sodium nitrite and ascorbic acid were prepared using normal saline as solvent. In Example 16, 1 ml of acid was added to the nitrite every 10 minutes. […]

The test system of series [5] is Methicillin Resistant Staphylococcus Aureus (MRSA). Kind of series: Agar plate exposed to gaseous NO in a closed box (Example 5). It is filed as cell-based. The following applies: overnight incubation in closed box with NO gas, FIG. 5. The procedure:
A Methicillin Resistant Staphylococcus Aureus (MRSA) culture was produced in the same manner as for Examples 1 to 4. The agar plate was placed in a polystyrene box. Gaseous NO was produced by reacting 10 ml 1M ascorbic acid with 5 ml 1M NaNO2 and 5 ml 1M KNO2 in the box and the lid of the box replaced immediately, followed by overnight incubation of the culture.

Experimental for Candida Albicans (CA): as §1, §2, §3, §4

With `O=C1O[C@H]([C@@H](O)CO)C(O)=C1O` [A, ascorbic acid], the “bacterial colonies on agar plate” value (in series [1]; in the series with Candida Albicans (CA); in series [2]; in series [3]) was “large amount of bacteria” throughout.

For the compound `O=NO` [sodium nitrite solution, sodium nitrite], the “initial pH” value in series [4] was “approximately 7.35”.

For the compound `[N]=O` [Gaseous NO, nitric oxide], the “visible bacterial cultures on agar plate” value in series [5] is “no remaining visible bacterial cultures”.
